{"source": "ChEMBL document CHEMBL1148320", "about": "“Characterization of a ligand-receptor binding event using receptor-dependent four-dimensional quantitative structure-activity relationship analysis” (J Med Chem, 2004)"}
{"target": "glycogen phosphorylase b, muscle (Oryctolagus cuniculus) (UniProt P00489)", "sequence (P00489 whole entry, looked up)": "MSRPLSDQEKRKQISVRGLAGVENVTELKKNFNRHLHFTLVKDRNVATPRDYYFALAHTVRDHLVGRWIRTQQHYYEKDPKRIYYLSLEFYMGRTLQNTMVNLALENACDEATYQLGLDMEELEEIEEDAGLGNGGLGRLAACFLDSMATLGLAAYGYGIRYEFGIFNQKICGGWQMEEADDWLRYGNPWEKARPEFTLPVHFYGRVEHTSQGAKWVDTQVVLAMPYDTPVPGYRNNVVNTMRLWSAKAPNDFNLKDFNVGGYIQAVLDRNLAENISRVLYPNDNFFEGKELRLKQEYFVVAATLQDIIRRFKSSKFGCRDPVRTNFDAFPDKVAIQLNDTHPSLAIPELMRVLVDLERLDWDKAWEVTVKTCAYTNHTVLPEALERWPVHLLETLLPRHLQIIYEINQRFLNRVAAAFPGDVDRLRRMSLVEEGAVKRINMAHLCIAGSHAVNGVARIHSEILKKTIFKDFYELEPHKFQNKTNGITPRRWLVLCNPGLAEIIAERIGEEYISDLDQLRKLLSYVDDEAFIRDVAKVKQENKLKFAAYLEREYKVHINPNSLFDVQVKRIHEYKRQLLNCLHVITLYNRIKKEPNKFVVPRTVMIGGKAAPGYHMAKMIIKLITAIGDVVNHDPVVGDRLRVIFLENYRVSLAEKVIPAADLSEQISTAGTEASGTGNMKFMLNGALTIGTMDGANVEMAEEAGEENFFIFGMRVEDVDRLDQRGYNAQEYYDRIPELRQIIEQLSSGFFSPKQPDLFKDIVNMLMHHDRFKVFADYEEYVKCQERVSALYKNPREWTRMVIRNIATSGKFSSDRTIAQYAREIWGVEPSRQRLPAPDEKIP", "units": {"Ki": "µM"}}
{"smiles": "OC[C@H]1S[C@H](O)[C@H](O)[C@@H](O)[C@@H]1O", "Ki": 2000}
{"smiles": "OC[C@H]1O[C@@](O)(CO)[C@H](O)[C@@H](O)[C@@H]1O", "Ki": 15800}
{"smiles": "O=C(CCl)NC1O[C@H](CO)[C@@H](O)[C@H](O)[C@H]1O", "note": "(single isomer, unassigned)", "Ki": 45}
{"smiles": "NC(=O)CSC1O[C@H](CO)[C@@H](O)[C@H](O)[C@H]1O", "note": "(single isomer, unassigned)", "Ki": 21100}
{"smiles": "O=C(CSC1O[C@H](CO)[C@@H](O)[C@H](O)[C@H]1O)Nc1ccc(F)cc1F", "note": "(single isomer, unassigned)", "Ki": 18900}
{"smiles": "O=C(CSC1O[C@H](CO)[C@@H](O)[C@H](O)[C@H]1O)Nc1ccccc1", "note": "(single isomer, unassigned)", "Ki": 3600}
{"smiles": "CNNC(=O)C1O[C@H](CO)[C@@H](O)[C@H](O)[C@H]1O", "note": "(single isomer, unassigned)", "Ki": 1800}
{"smiles": "NC(=O)NC1O[C@H](CO)[C@@H](O)[C@H](O)[C@H]1O", "note": "(single isomer, unassigned)", "Ki": 140}
{"smiles": "CCCC(=O)NC1O[C@H](CO)[C@@H](O)[C@H](O)[C@H]1O", "note": "(single isomer, unassigned)", "Ki": 94}
{"smiles": "CC(=O)NCC(=O)NC1O[C@H](CO)[C@@H](O)[C@H](O)[C@H]1O", "note": "(single isomer, unassigned)", "Ki": 990}
{"smiles": "CCC(=O)NC1O[C@H](CO)[C@@H](O)[C@H](O)[C@H]1O", "note": "(single isomer, unassigned)", "Ki": 39}
